Measurements reported in PMC10364322, “Evaluation of chronic drug-induced electrophysiological and cytotoxic effects using human-induced pluripotent stem cell-derived cardiomyocytes (hiPSC-CMs)” (Frontiers in Pharmacology, 2023).
Read-outs that look alike come from different tables or passages of the source.

Test system: hiPSC-CMs (iCell-Cardiomyocytes^2)
Outline: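 Spontaneous field potentials and impedance recorded by MEA at 37°C, 5% CO2 in hiPSC-CM monolayers (50 K/well, fibronectin-coated), 5-min baseline before compound; final DMSO 0.1%. Values are percent change from baseline, mean ± SD, compared with DMSO by Wilcoxon-Mann Whitney, interpreted against DMSO tolerance intervals.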

BR (beating rate), % change from baseline (0.3 µM, 2h): 0±1% | Beating below threshold, number of observations/total well numbers (0.3 µM, 2h): 0/5 | Cessation of beating, number of observations/total well numbers (0.3 µM, 2h): 0/5 | EAD, number of observations/total well numbers (0.3 µM, 2h): 0/5 | FPD (field-potential duration), % change from baseline (0.3 µM, 2h): 2.5±1.9% | FPDc (field-potential duration corrected by beat-rate), % change from baseline (0.3 µM, 2h): 2.6±1.7% | Flat T-wave-like, number of observations/total well numbers (0.3 µM, 2h): 0/5 | BR (beating rate), % change from baseline (0.3 µM, 24h): 4±2% | Beating below threshold, number of observations/total well numbers (0.3 µM, 24h): 0/5 | Cessation of beating, number of observations/total well numbers (0.3 µM, 24h): 0/5 | EAD, number of observations/total well numbers (0.3 µM, 24h): 0/5 | FPD (field-potential duration), % change from baseline (0.3 µM, 24h): 2.5±6.9% | FPDc (field-potential duration corrected by beat-rate), % change from baseline (0.3 µM, 24h): 3.8±6.8% | Flat T-wave-like, number of observations/total well numbers (0.3 µM, 24h): 1/5 | BR (beating rate), % change from baseline (0.3 µM, 48h): -1±1% | Beating below threshold, number of observations/total well numbers (0.3 µM, 48h): 0/5 | Cessation of beating, number of observations/total well numbers (0.3 µM, 48h): 0/5 | EAD, number of observations/total well numbers (0.3 µM, 48h): 0/5 | FPD (field-potential duration), % change from baseline (0.3 µM, 48h): 5.1±4.5% | FPDc (field-potential duration corrected by beat-rate), % change from baseline (0.3 µM, 48h): 4.5±4.4% | Flat T-wave-like, number of observations/total well numbers (0.3 µM, 48h): 0/5 | BR (beating rate), % change from baseline (0.3 µM, 72h): -6±3% | Beating below threshold, number of observations/total well numbers (0.3 µM, 72h): 0/5 | Cessation of beating, number of observations/total well numbers (0.3 µM, 72h): 0/5 | EAD, number of observations/total well numbers (0.3 µM, 72h): 0/5 | FPD (field-potential duration), % change from baseline (0.3 µM, 72h): 1.8±4.6% | FPDc (field-potential duration corrected by beat-rate), % change from baseline (0.3 µM, 72h): -0.2±4.7% | Flat T-wave-like, number of observations/total well numbers (0.3 µM, 72h): 0/5 | BR (beating rate), % change from baseline (0.3 µM, 96h): 0±7% | Beating below threshold, number of observations/total well numbers (0.3 µM, 96h): 0/5 | Cessation of beating, number of observations/total well numbers (0.3 µM, 96h): 0/5 | EAD, number of observations/total well numbers (0.3 µM, 96h): 0/5 | FPD (field-potential duration), % change from baseline (0.3 µM, 96h): 2.4±5.7% | FPDc (field-potential duration corrected by beat-rate), % change from baseline (0.3 µM, 96h): 2.7±6.2% | Flat T-wave-like, number of observations/total well numbers (0.3 µM, 96h): 0/5 | BR (beating rate), % change from baseline (1 µM, 2h): 0±1% | Beating below threshold, number of observations/total well numbers (1 µM, 2h): 0/4 | Cessation of beating, number of observations/total well numbers (1 µM, 2h): 0/4 | EAD, number of observations/total well numbers (1 µM, 2h): 0/4 | FPD (field-potential duration), % change from baseline (1 µM, 2h): 0.8±4.5% | FPDc (field-potential duration corrected by beat-rate), % change from baseline (1 µM, 2h): 1.1±4.5% | Flat T-wave-like, number of observations/total well numbers (1 µM, 2h): 0/4 | BR (beating rate), % change from baseline (1 µM, 24h): 6±1% | Beating below threshold, number of observations/total well numbers (1 µM, 24h): 0/4 | Cessation of beating, number of observations/total well numbers (1 µM, 24h): 0/4 | EAD, number of observations/total well numbers (1 µM, 24h): 0/4 | FPD (field-potential duration), % change from baseline (1 µM, 24h): 13±11.4% | FPDc (field-potential duration corrected by beat-rate), % change from baseline (1 µM, 24h): 15.1±11.7% | Flat T-wave-like, number of observations/total well numbers (1 µM, 24h): 0/4 | BR (beating rate), % change from baseline (1 µM, 48h): 0±2% | Beating below threshold, number of observations/total well numbers (1 µM, 48h): 0/4 | Cessation of beating, number of observations/total well numbers (1 µM, 48h): 0/4 | EAD, number of observations/total well numbers (1 µM, 48h): 0/4 | FPD (field-potential duration), % change from baseline (1 µM, 48h): 12.6±11.7% | FPDc (field-potential duration corrected by beat-rate), % change from baseline (1 µM, 48h): 12.5±11.6% | Flat T-wave-like, number of observations/total well numbers (1 µM, 48h): 0/4 | BR (beating rate), % change from baseline (1 µM, 72h): 0±5% | Beating below threshold, number of observations/total well numbers (1 µM, 72h): 0/4 | Cessation of beating, number of observations/total well numbers (1 µM, 72h): 0/4 | EAD, number of observations/total well numbers (1 µM, 72h): 0/4 | FPD (field-potential duration), % change from baseline (1 µM, 72h): 8.9±8.5% | FPDc (field-potential duration corrected by beat-rate), % change from baseline (1 µM, 72h): 8.8±8.8% | Flat T-wave-like, number of observations/total well numbers (1 µM, 72h): 0/4 | BR (beating rate), % change from baseline (1 µM, 96h): 2±3% | Beating below threshold, number of observations/total well numbers (1 µM, 96h): 0/4 | Cessation of beating, number of observations/total well numbers (1 µM, 96h): 0/4 | EAD, number of observations/total well numbers (1 µM, 96h): 0/4 | FPD (field-potential duration), % change from baseline (1 µM, 96h): 9.2±9.9% | FPDc (field-potential duration corrected by beat-rate), % change from baseline (1 µM, 96h): 10.3±10.9% | Flat T-wave-like, number of observations/total well numbers (1 µM, 96h): 0/4 | BR (beating rate), % change from baseline (3 µM, 72h): 6±4% | Beating below threshold, number of observations/total well numbers (3 µM, 72h): 0/5 | Cessation of beating, number of observations/total well numbers (3 µM, 72h): 0/5 | EAD, number of observations/total well numbers (3 µM, 72h): 0/5 | FPD (field-potential duration), % change from baseline (3 µM, 72h): 1.7±4.6% | FPDc (field-potential duration corrected by beat-rate), % change from baseline (3 µM, 72h): 3.6±3.3% | Flat T-wave-like, number of observations/total well numbers (3 µM, 72h): 0/5 | BR (beating rate), % change from baseline (3 µM, 96h): 14±5 % | Beating below threshold, number of observations/total well numbers (3 µM, 96h): 0/5 | Cessation of beating, number of observations/total well numbers (3 µM, 96h): 0/5 | EAD, number of observations/total well numbers (3 µM, 96h): 0/5 | FPD (field-potential duration), % change from baseline (3 µM, 96h): -4.1±6.5% | FPDc (field-potential duration corrected by beat-rate), % change from baseline (3 µM, 96h): 0.1±7% | Flat T-wave-like, number of observations/total well numbers (3 µM, 96h): 0/5 | BR (beating rate), % change from baseline (3 µM, 2h): 2±4% | Beating below threshold, number of observations/total well numbers (3 µM, 2h): 0/5 | Cessation of beating, number of observations/total well numbers (3 µM, 2h): 0/5 | EAD, number of observations/total well numbers (3 µM, 2h): 0/5 | FPD (field-potential duration), % change from baseline (3 µM, 2h): 3.7±3.5% | FPDc (field-potential duration corrected by beat-rate), % change from baseline (3 µM, 2h): 4.4±2.3% | Flat T-wave-like, number of observations/total well numbers (3 µM, 2h): 0/5 | BR (beating rate), % change from baseline (3 µM, 24h): 7±0% | Beating below threshold, number of observations/total well numbers (3 µM, 24h): 0/5 | Cessation of beating, number of observations/total well numbers (3 µM, 24h): 0/5 | EAD, number of observations/total well numbers (3 µM, 24h): 0/5 | FPD (field-potential duration), % change from baseline (3 µM, 24h): 8.9±1.5% | FPDc (field-potential duration corrected by beat-rate), % change from baseline (3 µM, 24h): 11.3±1.4% | Flat T-wave-like, number of observations/total well numbers (3 µM, 24h): 0/5 | BR (beating rate), % change from baseline (3 µM, 48h): 7±2% | Beating below threshold, number of observations/total well numbers (3 µM, 48h): 0/5 | Cessation of beating, number of observations/total well numbers (3 µM, 48h): 0/5 | EAD, number of observations/total well numbers (3 µM, 48h): 0/5 | FPD (field-potential duration), % change from baseline (3 µM, 48h): 2.8±2.5% | FPDc (field-potential duration corrected by beat-rate), % change from baseline (3 µM, 48h): 4.9±2.3% | Flat T-wave-like, number of observations/total well numbers (3 µM, 48h): 0/5 | BR (beating rate), % change from baseline (10 µM, 2h): 1±2% | Beating below threshold, number of observations/total well numbers (10 µM, 2h): 0/5 | Cessation of beating, number of observations/total well numbers (10 µM, 2h): 0/5 | EAD, number of observations/total well numbers (10 µM, 2h): 0/5 | FPD (field-potential duration), % change from baseline (10 µM, 2h): 5.5±2.1% | FPDc (field-potential duration corrected by beat-rate), % change from baseline (10 µM, 2h): 6±2.3% | Flat T-wave-like, number of observations/total well numbers (10 µM, 2h): 0/5 | BR (beating rate), % change from baseline (10 µM, 24h): 10±3% | Beating below threshold, number of observations/total well numbers (10 µM, 24h): 0/5 | Cessation of beating, number of observations/total well numbers (10 µM, 24h): 0/5 | EAD, number of observations/total well numbers (10 µM, 24h): 0/5 | FPD (field-potential duration), % change from baseline (10 µM, 24h): 11.3±10% | FPDc (field-potential duration corrected by beat-rate), % change from baseline (10 µM, 24h): 15.1±11% | Flat T-wave-like, number of observations/total well numbers (10 µM, 24h): 0/5 | BR (beating rate), % change from baseline (10 µM, 48h): 17±3% | Beating below threshold, number of observations/total well numbers (10 µM, 48h): 0/5 | Cessation of beating, number of observations/total well numbers (10 µM, 48h): 0/5 | EAD, number of observations/total well numbers (10 µM, 48h): 0/5 | FPD (field-potential duration), % change from baseline (10 µM, 48h): -0.8±13.7% | FPDc (field-potential duration corrected by beat-rate), % change from baseline (10 µM, 48h): 4.7±14.8% | Flat T-wave-like, number of observations/total well numbers (10 µM, 48h): 1/5 | BR (beating rate), % change from baseline (10 µM, 72h): 26±7 % | Beating below threshold, number of observations/total well numbers (10 µM, 72h): 0/5 | Cessation of beating, number of observations/total well numbers (10 µM, 72h): 0/5 | EAD, number of observations/total well numbers (10 µM, 72h): 0/5 | FPD (field-potential duration), % change from baseline (10 µM, 72h): -10.2±17% | FPDc (field-potential duration corrected by beat-rate), % change from baseline (10 µM, 72h): -2.8±19.3% | Flat T-wave-like, number of observations/total well numbers (10 µM, 72h): 1/5 | BR (beating rate), % change from baseline (10 µM, 96h): 48±6 % | Beating below threshold, number of observations/total well numbers (10 µM, 96h): 0/5 | Cessation of beating, number of observations/total well numbers (10 µM, 96h): 0/5 | EAD, number of observations/total well numbers (10 µM, 96h): 0/5 | FPD (field-potential duration), % change from baseline (10 µM, 96h): -14.5±9.4% | FPDc (field-potential duration corrected by beat-rate), % change from baseline (10 µM, 96h): -2.5±12.4% | Flat T-wave-like, number of observations/total well numbers (10 µM, 96h): 2/5
Structure (SMILES): CC(C)(Sc1cc(C(C)(C)C)c(O)c(C(C)(C)C)c1)Sc1cc(C(C)(C)C)c(O)c(C(C)(C)C)c1 [Probucol]
prolongation of FPD / FPDc (all concentrations tested): did not induce a statistically significant prolongation of the FPD
